From patent US6355799B1, “Substituted benzene compounds, process for their preparation, and herbicidal and defoliant compositions containing them” (ISK Americas Incorporated, priority 1997, dated 2002)

Legend:
Assay type in all cases: in vivo
[1] = system: lambsquarters (Chenopodium album, CHEAL); assay: Post-emerge test, greenhouse herbicide activity screening; settings: post-emerge, 14 days after application, rating scale 0-100
Text: (§1) A standard greenhouse herbicide activity screening system was used to evaluate the herbicidal efficacy and crop safety of these test compounds. Seven broadleaf weed species including redroot pigweed (Amaranthus retroflexus, AMARE, velvetleaf (Abutilon theophrasti, ABUTH), sicklepod (Cassia obtusifolia, CASOB), ivyleaf morningglory (Ipomoea hederacea, IPOHE), lambsquarters (Chenopodium album, CHEAL), common ragweed (Ambrosia artemisizfolia L., AMBEL), and cocklebur (Xanthium strumarium, XANST) were used as test species. Four grass weed species including green foxtail (Setaria viridis, SETVI), barnyardgrass (Echinochloa crus-galli, ECHCG), johnsongrass (Sorghum halepense, SORHA), and large crabgrass (Digitaria sanguinalis, DIGSA) were also used. In addition, three crop species, field corn (Zea mays L., var. Dekalb 535, CORN), soybean (Glycine max L., var. Pella 86, SOY), and is upland rice (Oryza sp., var. Tebonnet, RICE) were included.
(§2) All plants were grown in 10 cm square plastic pots which were filled with a sandy loam soil mix. For pre-emerge tests, seeds were planted one day prior to application of the test compounds. For post-emerge tests, seeds were planted 8-21 days prior to the test to allow emergence and good foliage development prior to application of the test substances. At the time of the post-emerge application, plants of all species were usually at the 2-3 leaf stage of development.
(§3) All test compounds Were dissolved in acetone and applied to the test units in a volume of 187 l /ha. Test materials were applied at rates ranging from 15 g ai/ha to 1000 g ai/ha using a track sprayer equipped with a TJ8001E even flow flat fan spray nozzle. Plants were arranged on a shelf so that the top of the canopy (post-emerge) or top of the soil surface (pre-emerge) was 40-45 cm below the nozzle. Pressurized air was used to force the test solution through the nozzle as it was mechanically advanced (via electrically driven chain drive) over the top of all test plants/pots. This application simulates a typical commercial field herbicide application.
(§4) In the post-emerge test, a commercial non-ionic surfactant was also included (0.25% v/v) to enhance wetting of the leaf surfaces of target plants. Immediately after application, test units of the pre-emerge applications were watered at the soil surface to incorporate the test materials. Subsequently, these test units were bottom-watered. Post-emerge test units were always bottom-watered.
(§5) At 14 days after application of the test materials, phytotoxicity ratings were recorded. A rating scale of 0-100 was used as previously described in Research Methods in Weed Science, 2nd edition, B. Truelove, Ed., Southern Weed Science Society, Auburn University, Auburn, Ala. 1977. Briefly, “0” corresponds to no damage and “100” corresponds to complete death of all plants in the test unit. This scale was used both to determine efficacy against weed species and damage to crop species. Herbicide activity data for various compounds of this invention, which are shown by compound No. in Tables 1-8, are shown in Tables 11 and 12.

[2] = system: sicklepod (Cassia obtusifolia, CASOB); assay: as above; settings: post-emerge, 14 days after application, rating scale 0-100
Text: as §1, §2, §3, §4, §5

[3] = system: velvetleaf (Abutilon theophrasti, ABUTH); assay: as above; settings: post-emerge, 14 days after application, rating scale 0-100
Text: as §1, §2, §3, §4, §5

[4] = system: large crabgrass (Digitaria sanguinalis, DIGSA); assay: as above; settings: post-emerge, 14 days after application, rating scale 0-100
Text: as §1, §2, §3, §4, §5

[5] = system: green foxtail (Setaria viridis, SETVI); assay: as above; settings: post-emerge, 14 days after application, rating scale 0-100
Text: as §1, §2, §3, §4, §5

[6] = system: redroot pigweed (Amaranthus retroflexus, AMARE); assay: as above; settings: post-emerge, 14 days after application, rating scale 0-100
Text: as §1, §2, §3, §4, §5

[7] = system: ivyleaf morningglory (Ipomoea hederacea, IPOHE); assay: as above; settings: post-emerge, 14 days after application, rating scale 0-100
Text: as §1, §2, §3, §4, §5

[8] = system: barnyardgrass (Echinochloa crus-galli, ECHCG); assay: as above; settings: post-emerge, 14 days after application, rating scale 0-100
Text: as §1, §2, §3, §4, §5

[9] = system: lambsquarters (Chenopodium album, CHEAL); assay: Pre-emerge test, greenhouse herbicide activity screening; settings: pre-emerge, 14 days after application, scale 0-100
Text: as §1, §2, §3, §4, §5

[10] = system: sicklepod (Cassia obtusifolia, CASOB); assay: as above; settings: pre-emerge, 14 days after application, scale 0-100
Text: as §1, §2, §3, §4, §5

[11] = system: velvetleaf (Abutilon theophrasti, ABUTH); assay: as above; settings: pre-emerge, 14 days after application, scale 0-100
Text: as §1, §2, §3, §4, §5

[12] = system: large crabgrass (Digitaria sanguinalis, DIGSA); assay: as above; settings: pre-emerge, 14 days after application, scale 0-100
Text: as §1, §2, §3, §4, §5

[13] = system: green foxtail (Setaria viridis, SETVI); assay: as above; settings: pre-emerge, 14 days after application, scale 0-100
Text: as §1, §2, §3, §4, §5

[14] = system: ivyleaf morningglory (Ipomoea hederacea, IPOHE); assay: as above; settings: pre-emerge, 14 days after application, scale 0-100
Text: as §1, §2, §3, §4, §5

[15] = system: barnyardgrass (Echinochloa crus-galli, ECHCG); assay: as above; settings: pre-emerge, 14 days after application, scale 0-100
Text: as §1, §2, §3, §4, §5

[16] = system: upland rice (Oryza sp., var. Tebonnet, RICE); assay: Pre-emerge test, crop safety; settings: pre-emerge, 14 days after application, scale 0-100
Text: as §1, §2, §3, §4, §5

[17] = system: field corn (Zea mays L., var. Dekalb 535, CORN); assay: Pre-emerge test, crop safety; settings: pre-emerge, 14 days after application, scale 0-100
Text: as §1, §2, §3, §4, §5

[18] = system: redroot pigweed (Amaranthus retroflexus, AMARE); assay: Pre-emerge test, greenhouse herbicide activity screening; settings: pre-emerge, 14 days after application, scale 0-100
Outline: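 Plants grown in 10 cm pots of sandy loam mix received acetone-dissolved compounds through a moving flat-fan nozzle. Doses ranged from 15 to 1000 g ai/ha. Pre-emerge pots were seeded one day earlier, post-emerge pots 8–21 days earlier. Fourteen days on, each pot was graded 0–100 for damage.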

[19] = system: upland rice (Oryza sp., var. Tebonnet, RICE); assay: Post-emerge test, crop safety; settings: post-emerge, 14 days after application, rating scale 0-100
Text: as §1, §2, §3, §4, §5

[20] = system: field corn (Zea mays L., var. Dekalb 535, CORN); assay: Post-emerge test, crop safety; settings: post-emerge, 14 days after application, rating scale 0-100
Text: as §1, §2, §3, §4, §5

Row | SMILES | CHEAL phytotoxicity rating ([1]; 63 g ai/ha) | CHEAL phytotoxicity rating ([1]; 250 g ai/ha) | CASOB phytotoxicity rating ([2]; 63 g ai/ha) | CASOB phytotoxicity rating ([2]; 250 g ai/ha) | ABUTH phytotoxicity rating ([3]; 63 g ai/ha) | ABUTH phytotoxicity rating ([3]; 250 g ai/ha) | DIGSA phytotoxicity rating ([4]; 63 g ai/ha) | DIGSA phytotoxicity rating ([4]; 250 g ai/ha) | SETVI phytotoxicity rating ([5]; 63 g ai/ha) | SETVI phytotoxicity rating ([5]; 250 g ai/ha) | AMARE phytotoxicity rating ([6]; 63 g ai/ha) | AMARE phytotoxicity rating ([6]; 250 g ai/ha) | IPOHE phytotoxicity rating ([7]; 63 g ai/ha) | IPOHE phytotoxicity rating ([7]; 250 g ai/ha) | ECHCG phytotoxicity rating ([8]; 63 g ai/ha) | ECHCG phytotoxicity rating ([8]; 250 g ai/ha) | phytotoxicity rating CHEAL ([9]; 63 g ai/ha) | phytotoxicity rating CHEAL ([9]; 250 g ai/ha) | phytotoxicity rating CASOB ([10]; 63 g ai/ha) | phytotoxicity rating CASOB ([10]; 250 g ai/ha) | other results
1 | Cn1c(C(F)(F)F)cc(=O)n(-c2ccc(C#N)cc2NC(=O)C=Cc2ccccc2)c1=O [2-141] | 95 | 100 | 50 | 95 | 100 | 100 | 10 | 30 | 20 | 40 | 95 | 95 | 100 | 95 | 10 | 30 | 100 | 100 | 30 | 90 | phytotoxicity rating ABUTH ([11]; 63 g ai/ha): 100; phytotoxicity rating ABUTH ([11]; 250 g ai/ha): 100; phytotoxicity rating DIGSA ([12]; 63 g ai/ha): 35; phytotoxicity rating DIGSA ([12]; 250 g ai/ha): 70; phytotoxicity rating SETVI ([13]; 63 g ai/ha): 30; phytotoxicity rating SETVI ([13]; 250 g ai/ha): 70; phytotoxicity rating IPOHE ([14]; 63 g ai/ha): 40; phytotoxicity rating IPOHE ([14]; 250 g ai/ha): 100; phytotoxicity rating ECHCG ([15]; 63 g ai/ha): 30; phytotoxicity rating ECHCG ([15]; 250 g ai/ha): 95; phytotoxicity rating RICE (crop damage) ([16]; 63 g ai/ha): 30; phytotoxicity rating RICE (crop damage) ([16]; 250 g ai/ha): 70; phytotoxicity rating CORN (crop damage) ([17]; 63 g ai/ha): 0; phytotoxicity rating CORN (crop damage) ([17]; 250 g ai/ha): 45; phytotoxicity rating AMARE ([18]; 63 g ai/ha): 100; phytotoxicity rating AMARE ([18]; 250 g ai/ha): 100; RICE phytotoxicity rating (crop damage) ([19]; 63 g ai/ha): 15; RICE phytotoxicity rating (crop damage) ([19]; 250 g ai/ha): 65; CORN phytotoxicity rating (crop damage) ([20]; 63 g ai/ha): 5; CORN phytotoxicity rating (crop damage) ([20]; 250 g ai/ha): 10
2 | COc1c(C#N)cc(F)c(-n2c(=O)cc(C(F)(F)F)n(C)c2=O)c1NC(=O)c1ccc2ccccc2c1 [2-180] | 100 | 100 | 100 | 100 | 100 | 100 | 40 | 40 | 60 | 70 | 100 | 100 | 100 | 100 | 40 | 60 | 100 | 100 | 40 | 50 | phytotoxicity rating ABUTH ([11]; 63 g ai/ha): 100; phytotoxicity rating ABUTH ([11]; 250 g ai/ha): 100; phytotoxicity rating DIGSA ([12]; 63 g ai/ha): 20; phytotoxicity rating DIGSA ([12]; 250 g ai/ha): 90; phytotoxicity rating SETVI ([13]; 63 g ai/ha): 30; phytotoxicity rating SETVI ([13]; 250 g ai/ha): 90; phytotoxicity rating IPOHE ([14]; 63 g ai/ha): 60; phytotoxicity rating IPOHE ([14]; 250 g ai/ha): 100; phytotoxicity rating ECHCG ([15]; 63 g ai/ha): 10; phytotoxicity rating ECHCG ([15]; 250 g ai/ha): 80; phytotoxicity rating RICE (crop damage) ([16]; 63 g ai/ha): 40; phytotoxicity rating RICE (crop damage) ([16]; 250 g ai/ha): 70; phytotoxicity rating CORN (crop damage) ([17]; 63 g ai/ha): 0; phytotoxicity rating CORN (crop damage) ([17]; 250 g ai/ha): 5; phytotoxicity rating AMARE ([18]; 63 g ai/ha): 100; phytotoxicity rating AMARE ([18]; 250 g ai/ha): 100; RICE phytotoxicity rating (crop damage) ([19]; 63 g ai/ha): 20; RICE phytotoxicity rating (crop damage) ([19]; 250 g ai/ha): 65; CORN phytotoxicity rating (crop damage) ([20]; 63 g ai/ha): 5; CORN phytotoxicity rating (crop damage) ([20]; 250 g ai/ha): 20
3 | COc1c(C#N)cc(F)c(-n2c(=O)cc(C(F)(F)F)n(C)c2=O)c1NC(=O)c1ccc2ccccc2c1 [2-181] | 100 | 100 | 100 | 100 | 100 | 100 | 30 | 70 | 70 | 80 | 100 | 100 | 100 | 100 | 40 | 60 | 100 | 100 | 10 | 90 | phytotoxicity rating ABUTH ([11]; 63 g ai/ha): 100; phytotoxicity rating ABUTH ([11]; 250 g ai/ha): 100; phytotoxicity rating DIGSA ([12]; 63 g ai/ha): 60; phytotoxicity rating DIGSA ([12]; 250 g ai/ha): 90; phytotoxicity rating SETVI ([13]; 63 g ai/ha): 70; phytotoxicity rating SETVI ([13]; 250 g ai/ha): 95; phytotoxicity rating IPOHE ([14]; 63 g ai/ha): 30; phytotoxicity rating IPOHE ([14]; 250 g ai/ha): 80; phytotoxicity rating ECHCG ([15]; 63 g ai/ha): 40; phytotoxicity rating ECHCG ([15]; 250 g ai/ha): 80; phytotoxicity rating RICE (crop damage) ([16]; 63 g ai/ha): 15; phytotoxicity rating RICE (crop damage) ([16]; 250 g ai/ha): 80; phytotoxicity rating CORN (crop damage) ([17]; 63 g ai/ha): 0; phytotoxicity rating CORN (crop damage) ([17]; 250 g ai/ha): 5; phytotoxicity rating AMARE ([18]; 63 g ai/ha): 100; phytotoxicity rating AMARE ([18]; 250 g ai/ha): 100; RICE phytotoxicity rating (crop damage) ([19]; 63 g ai/ha): 15; RICE phytotoxicity rating (crop damage) ([19]; 250 g ai/ha): 60; CORN phytotoxicity rating (crop damage) ([20]; 63 g ai/ha): 10; CORN phytotoxicity rating (crop damage) ([20]; 250 g ai/ha): 20
